In patent publication US11406713B2, “Xanthine oxidase inhibitor formulations” (XORTX THERAPEUTICS, INC., priority 2013, dated 2022):

Columns and labels:
[1] = background statement; cited from earlier work
[2] = background statement; cited from earlier work; remark: listed apart in the source
[3] = equilibrium solubility and dissolution profile of oxypurinol in aqueous solution; format: physicochemical; details: for equilibrium solubility, dissolution and solubility: compared to oxypurinol free acid (FIG. 1)

SMILES | solubility [1] | bioavailability [2] | equilibrium solubility, dissolution and solubility ([3]; aqueous solution, in the presence of a 1 molar equivalent of lysine, FIG. 2) | equilibrium solubility, dissolution ([3]; in choline, FIG. 4) | equilibrium solubility, dissolution and solubility ([3]; in the presence of a 1 molar equivalent of L-arginine, FIG. 3) | equilibrium solubility, dissolution rate and solubility ([3]; using organic and or basic organic molecules, in aqueous solutions, compared to oxypurinol free acid)
Oc1ncnc2[nH]ncc12 [Allopurinol, 4-hydroxy-pyrazolo[3,4-d]pyrimidine] | poorly soluble | poorly bioavailable |  |  |  | 
O=c1[nH]c(=O)c2c[nH]nc2[nH]1 [oxypurinol, 4,6-dihydroxypyrazolo[3,4-d]pyrimidine] | poorly soluble | poorly bioavailable | increased dissolution and solubility | increased dissolution | increased dissolution and solubility | increased equilibrium solubility, increased dissolution rate and solubility
